Assay results from patent US20240158370A1, “CK1 alpha AND DUAL CK1 alpha / GSPT1 DEGRADING COMPOUNDS” (Innovo Therapeutics, Inc., priority 2022, published 2024).

How the values were obtained:
CK1α = target: T1, CK1α (Homo sapiens, UniProt P48729+Q96SW2); experiment: HiBiT degradation assay, CK1α, Procedure A; assay type: cell-based; conditions: six hours
T1 construct: CSNK1A1-HiBit KI HEK293(LgBit) Cells; host or cells: HEK293(LgBit) knock-in cells
How it was run: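 Luminescence from HiBiT lytic detection reports remaining tagged protein after cells sit six hours at 37° C with compound across ten concentrations (10 μM down to 0.005 μM, 0.1% DMSO). A 4-parameter curve fit gives DC50 and Ymin.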

GSPT1 = GSPT1 (Homo sapiens, UniProt P15170+Q96SW2); experiment: HiBiT degradation assay, GSPT1, Procedure B (Molt 4_hGSPT1_HiBIT cells); assay type: cell-based; design: Molt 4_hGSPT1_HiBIT N-terminus tagged cells were generated using CRISPR technology; endogenous in cells; host or cells: Molt 4 cells, CRISPR-edited; conditions: six hours
Chain of GSPT1 (P15170 whole entry): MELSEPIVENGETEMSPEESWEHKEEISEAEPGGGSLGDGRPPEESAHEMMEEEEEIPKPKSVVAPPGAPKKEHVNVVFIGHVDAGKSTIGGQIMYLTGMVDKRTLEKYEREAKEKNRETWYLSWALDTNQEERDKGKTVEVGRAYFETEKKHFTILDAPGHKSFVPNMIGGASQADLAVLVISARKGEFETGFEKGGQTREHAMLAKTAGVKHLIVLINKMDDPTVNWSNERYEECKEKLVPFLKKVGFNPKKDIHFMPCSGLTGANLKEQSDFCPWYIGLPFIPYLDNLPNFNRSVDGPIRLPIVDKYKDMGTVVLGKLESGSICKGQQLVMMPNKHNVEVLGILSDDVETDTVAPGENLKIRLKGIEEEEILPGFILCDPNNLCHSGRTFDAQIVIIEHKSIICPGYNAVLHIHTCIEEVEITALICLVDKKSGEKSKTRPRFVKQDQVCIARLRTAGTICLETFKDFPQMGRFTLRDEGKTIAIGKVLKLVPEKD
Chain of GSPT1 (Q96SW2 whole entry): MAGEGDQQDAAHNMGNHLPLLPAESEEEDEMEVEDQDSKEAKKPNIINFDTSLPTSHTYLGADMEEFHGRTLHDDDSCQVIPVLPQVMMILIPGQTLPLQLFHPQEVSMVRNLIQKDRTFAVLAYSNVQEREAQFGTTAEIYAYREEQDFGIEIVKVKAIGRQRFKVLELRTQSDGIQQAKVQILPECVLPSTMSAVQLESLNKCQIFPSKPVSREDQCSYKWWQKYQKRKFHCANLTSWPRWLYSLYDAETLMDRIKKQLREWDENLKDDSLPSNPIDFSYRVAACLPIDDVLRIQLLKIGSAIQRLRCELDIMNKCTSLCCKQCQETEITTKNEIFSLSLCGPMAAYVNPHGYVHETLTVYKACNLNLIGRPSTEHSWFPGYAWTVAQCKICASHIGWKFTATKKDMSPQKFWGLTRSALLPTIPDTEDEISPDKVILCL
Chain of GSPT1 (Q16531 whole entry partner): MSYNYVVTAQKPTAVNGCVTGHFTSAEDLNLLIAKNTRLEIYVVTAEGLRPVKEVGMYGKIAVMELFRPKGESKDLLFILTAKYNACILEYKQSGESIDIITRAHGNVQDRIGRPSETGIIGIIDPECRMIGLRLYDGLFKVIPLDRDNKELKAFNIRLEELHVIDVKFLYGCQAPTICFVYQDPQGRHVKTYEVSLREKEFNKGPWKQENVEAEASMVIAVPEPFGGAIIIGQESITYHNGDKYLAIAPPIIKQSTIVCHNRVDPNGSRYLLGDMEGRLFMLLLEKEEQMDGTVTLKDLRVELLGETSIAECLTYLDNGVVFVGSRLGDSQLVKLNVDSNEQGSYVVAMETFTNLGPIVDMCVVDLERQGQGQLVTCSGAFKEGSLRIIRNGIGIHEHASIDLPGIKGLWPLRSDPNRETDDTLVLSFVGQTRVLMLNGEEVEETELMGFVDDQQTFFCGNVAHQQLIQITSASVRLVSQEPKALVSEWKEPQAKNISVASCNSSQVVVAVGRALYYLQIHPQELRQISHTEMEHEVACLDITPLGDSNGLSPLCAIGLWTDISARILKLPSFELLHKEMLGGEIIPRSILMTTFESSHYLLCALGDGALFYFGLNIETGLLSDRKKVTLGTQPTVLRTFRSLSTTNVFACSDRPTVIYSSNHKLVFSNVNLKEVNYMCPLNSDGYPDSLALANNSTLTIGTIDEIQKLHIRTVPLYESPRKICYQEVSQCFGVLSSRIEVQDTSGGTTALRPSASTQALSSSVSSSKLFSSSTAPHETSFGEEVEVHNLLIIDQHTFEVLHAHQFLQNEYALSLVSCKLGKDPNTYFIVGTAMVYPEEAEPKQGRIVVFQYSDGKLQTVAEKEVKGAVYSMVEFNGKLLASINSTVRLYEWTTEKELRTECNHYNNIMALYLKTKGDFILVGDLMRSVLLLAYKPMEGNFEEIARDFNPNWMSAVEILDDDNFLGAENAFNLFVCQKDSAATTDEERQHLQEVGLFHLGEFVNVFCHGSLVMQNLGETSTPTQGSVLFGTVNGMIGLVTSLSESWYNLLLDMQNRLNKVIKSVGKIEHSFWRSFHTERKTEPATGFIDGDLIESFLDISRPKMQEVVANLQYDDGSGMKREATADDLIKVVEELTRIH
How it was run: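 CRISPR N-terminal HiBiT-tagged Molt 4 cells at 1×10^6 cells/ml were treated 6 h at 37° C with compounds (10-point, 10 μM to 0.005 μM, 0.1% DMSO). Remaining HiBiT-GSPT1 was read by lytic luminescence; DC50 and Ymin (% remaining) from a 4-parameter fit.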

T1 sequence (P48729 whole entry): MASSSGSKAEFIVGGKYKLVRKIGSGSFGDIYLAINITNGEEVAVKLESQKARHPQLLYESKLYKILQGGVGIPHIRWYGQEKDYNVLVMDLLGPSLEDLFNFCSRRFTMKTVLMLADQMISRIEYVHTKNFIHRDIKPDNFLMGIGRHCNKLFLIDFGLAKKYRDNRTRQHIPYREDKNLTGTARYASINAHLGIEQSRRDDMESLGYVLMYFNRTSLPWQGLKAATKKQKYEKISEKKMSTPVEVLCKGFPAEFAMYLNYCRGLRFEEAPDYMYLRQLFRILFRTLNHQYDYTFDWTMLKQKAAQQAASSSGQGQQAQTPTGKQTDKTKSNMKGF
T1 sequence (Q96SW2 whole entry): as the sequence (Q96SW2 whole entry) above
T1 sequence (Q16531 whole entry partner): as the sequence (Q16531 whole entry partner) above

SMILES	CK1α Ymin (CK1α)	DC50 (CK1α)	DC50 (GSPT1)	GSPT1 Ymin (GSPT1)
Cn1ncc(-c2ccc3c(c2)CN(C2CCC(=O)NC2=O)C3=O)c1C1CCC(F)(F)CC1 (stereo not shown) [Example 699]	F (F = >75-100% remaining)	≥ 0.025 µM	≥ 0.025 µM	F (F = >75-100% remaining)
Cn1ncc(-c2ccc3c(c2)CN(C2CCC(=O)NC2=O)C3=O)c1C1=Cc2ccccc2C1 (stereo not shown) [Example 700]	E (E = >25-75% remaining)	< 0.025 µM	< 0.025 µM	F (F = >75-100% remaining)
Cn1ncc(-c2ccc3c(c2)CN(C2CCC(=O)NC2=O)C3=O)c1C1=Cc2ccccc2CC1 (stereo not shown) [Example 701]	E (E = >25-75% remaining)	≥ 0.025 µM	≥ 0.025 µM	F (F = >75-100% remaining)
Cn1ncc(-c2ccc3c(c2)CN(C2CCC(=O)NC2=O)C3=O)c1C1=CCN(CC(F)(F)F)CC1 (stereo not shown) [Example 702]	E (E = >25-75% remaining)	≥ 0.025 µM	≥ 0.025 µM	F (F = >75-100% remaining)
Cn1nc(-c2ccc3c(c2)CN(C2CCC(=O)NC2=O)C3=O)nc1N1[C@@H]2CCC[C@H]1CC2 (stereo partly drawn) [Example 706, 3-(5-(5-((1R,5S)-8-azabicyclo[3.2.1]octan-8-yl)-1-methyl-1H-1,2,4-triazol-3-yl)-1-oxoisoindolin-2-yl)piperidine-2,6-dione]	D (D = >10- 25% remaining)	< 0.025 µM	≥ 0.025 µM	F (F = >75-100% remaining)
Cn1nc(-c2ccc3c(c2)CN(C2CCC(=O)NC2=O)C3=O)nc1N1CCC(C(F)(F)F)CC1 (stereo not shown) [Example 707, 3-(5-(1-methyl-5-(4-(trifluoromethyl)piperidin-1-yl)-1H-1,2,4-triazol-3-yl)-1-oxoisoindolin-2-yl)piperidine-2,6-dione]	D (D = >10- 25% remaining)	< 0.025 µM	≥ 0.025 µM	F (F = >75-100% remaining)
C[C@H]1CCCCN1c1nc(-c2ccc3c(c2)CN(C2CCC(=O)NC2=O)C3=O)nn1C (stereo partly drawn) [Example 708, 3-(5-(1-methyl-5-((S)-2-methylpiperidin-1-yl)-1H-1,2,4-triazol-3-yl)-1-oxoisoindolin-2-yl)piperidine-2,6-dione]	D (D = >10- 25% remaining)	< 0.025 µM	≥ 0.025 µM	F (F = >75-100% remaining)
C[C@@H]1CCCCN1c1nc(-c2ccc3c(c2)CN(C2CCC(=O)NC2=O)C3=O)nn1C (stereo partly drawn) [Example 709, 3-(5-(1-methyl-5-((R)-2-methylpiperidin-1-yl)-1H-1,2,4-triazol-3-yl)-1-oxoisoindolin-2-yl)piperidine-2,6-dione]	D (D = >10- 25% remaining)	< 0.025 µM	≥ 0.025 µM	F (F = >75-100% remaining)
Cn1cc(-c2ccc3c(c2)CN(C2CCC(=O)NC2=O)C3=O)nc1C12CC3CC(CC(C3)C1)C2 (stereo not shown) [Example 711, 3-[5-[2-(1-adamantyl)-1-methyl-imidazol-4-yl]-1-oxo-isoindolin-2-yl]piperidine-2,6-dione]	E (E = >25-75% remaining)	< 0.025 µM	≥ 0.025 µM	F (F = >75-100% remaining)
Cc1nc(-c2ccc3c(c2)CN(C2CCC(=O)NC2=O)C3=O)nn1-c1ccccc1 (stereo not shown) [Example 712, 3-(5-(5-methyl-1-phenyl-1H-1,2,4-triazol-3-yl)-1-oxoisoindolin-2-yl) piperidine-2,6-dione]	D (D = >10- 25% remaining)	< 0.025 µM	< 0.025 µM	F (F = >75-100% remaining)
Cn1nc(-c2ccc3c(c2)CN(C2CCC(=O)NC2=O)C3=O)nc1N1CCCC1 (stereo not shown) [Example 713, 3-(5-(1-methyl-5-(pyrrolidin-1-yl)-1H-1,2,4-triazol-3-yl)-1-oxoisoindolin-2-yl)piperidine-2,6-dione]	D (D = >10- 25% remaining)	< 0.025 µM	< 0.025 µM	F (F = >75-100% remaining)
Cn1cc(-c2ccc3c(c2)CN(C2CCC(=O)NC2=O)C3=O)nc1C1(C)CCCCC1 (stereo not shown) [Example 714, 3-(5-(1-methyl-2-(1-methylcyclohexyl)-1H-imidazol-4-yl)-1-oxoisoindolin-2-yl)piperidine-2,6-dione]	E (E = >25-75% remaining)	< 0.025 µM	< 0.025 µM	F (F = >75-100% remaining)
Cn1cc(-c2ccc3c(c2)CN(C2CCC(=O)NC2=O)C3=O)nc1[C@H]1CC[C@H](C)CC1 (stereo partly shown) [Example 715, 3-(5-(1-Methyl-2-((1r,4r)-4-methylcyclohexyl)-1H-imidazol-4-yl)-1-oxoisoindolin-2-yl)piperidine-2,6-dione]	D (D = >10- 25% remaining)	< 0.025 µM	< 0.025 µM	E (E = >25-75% remaining)
Cn1cc(-c2ccc3c(c2)CN(C2CCC(=O)NC2=O)C3=O)nc1[C@H]1[C@@H]2COC[C@@H]21 (stereo partly drawn) [Example 716, 3-(5-(2-((1R,5S,6s)-3-oxabicyclo[3.1.0]hexan-6-yl)-1-methyl-1H-imidazol-4-yl)-1-oxoisoindolin-2-yl)piperidine-2,6-dione]	E (E = >25-75% remaining)	< 0.025 µM	≥ 0.025 µM	F (F = >75-100% remaining)
Cn1cc(-c2ccc3c(c2)CN(C2CCC(=O)NC2=O)C3=O)nc1C12CCC(CC1)CC2 (stereo not shown) [Example 718, 3-(5-(2-(bicyclo[2.2.2]octan-1-yl)-1-methyl-1H-imidazol-4-yl)-1-oxoisoindolin-2-yl)piperidine-2,6-dione]	E (E = >25-75% remaining)	< 0.025 µM	≥ 0.025 µM	F (F = >75-100% remaining)
Cn1cc(-c2ccc3c(c2)CN(C2CCC(=O)NC2=O)C3=O)nc1C12CCN(CC1)CC2 (stereo not shown) [Example 719, 3-(5-(1-methyl-2-(quinuclidin-4-yl)-1H-imidazol-4-yl)-1-oxoisoindolin-2-yl)piperidine-2,6-dione]	E (E = >25-75% remaining)	≥ 0.025 µM	≥ 0.025 µM	F (F = >75-100% remaining)
CCc1nc(-c2ccc3c(c2)CN(C2CCC(=O)NC2=O)C3=O)c(-c2ccccc2)o1 (stereo not shown) [Example 720, 3-(5-(2-ethyl-5-phenyloxazol-4-yl)-1-oxoisoindolin-2-yl) piperidine-2,6-dione]	C (C = 0-10% remaining)	< 0.025 µM	< 0.025 µM	E (E = >25-75% remaining)
Cn1cc(-c2ccc3c(c2)CN(C2CCC(=O)NC2=O)C3=O)nc1-c1ccc(N2CCNCC2)cc1 (stereo not shown) [Example 721]	D (D = >10- 25% remaining)	≥ 0.025 µM	≥ 0.025 µM	F (F = >75-100% remaining)
Cn1cc(-c2ccc3c(c2)CN(C2CCC(=O)NC2=O)C3=O)nc1-c1ccc2c(c1)CC(=O)N2 (stereo not shown) [Example 722]	D (D = >10- 25% remaining)	≥ 0.025 µM	< 0.025 µM	F (F = >75-100% remaining)
CC(=O)Nc1ccc(-c2nc(-c3ccc4c(c3)CN(C3CCC(=O)NC3=O)C4=O)cn2C)cc1 (stereo not shown) [Example 723]	C (C = 0-10% remaining)	< 0.025 µM	≥ 0.025 µM	F (F = >75-100% remaining)
Cn1cc(-c2ccc3c(c2)CN(C2CCC(=O)NC2=O)C3=O)nc1-c1cccc(F)c1F (stereo not shown) [Example 724]	C (C = 0-10% remaining)	< 0.025 µM	≥ 0.025 µM	F (F = >75-100% remaining)
Cn1cc(-c2ccc3c(c2)CN(C2CCC(=O)NC2=O)C3=O)nc1-c1cc(F)ccc1Cl (stereo not shown) [Example 725]	C (C = 0-10% remaining)	< 0.025 µM	≥ 0.025 µM	F (F = >75-100% remaining)
Cn1c(C2CCC2)nc(-c2ccc3c(c2)CN(C2CCC(=O)NC2=O)C3=O)c1-c1ccccc1 (stereo not shown) [Example 727, 3-(5-(2-cyclobutyl-1-methyl-5-phenyl-1H-imidazol-4-yl)-1-oxoisoindolin-2-yl)piperidine-2,6-dione]	C (C = 0-10% remaining)	< 0.025 µM	≥ 0.025 µM	F (F = >75-100% remaining)
O=C1CCC(N2Cc3cc(-c4nc(C5CC5)oc4-c4ccccc4)ccc3C2=O)C(=O)N1 (stereo not shown) [Example 734, 3-(5-(2-cyclopropyl-5-phenyloxazol-4-yl)-1-oxoisoindolin-2-yl)piperidine-2,6-dione]	C (C = 0-10% remaining)	< 0.025 µM	≥ 0.025 µM	F (F = >75-100% remaining)
O=C1CCC(N2Cc3cc(-c4nc(C(F)F)oc4-c4ccccc4)ccc3C2=O)C(=O)N1 (stereo not shown) [Example 735, 3-(5-(2-(difluoromethyl)-5-phenyloxazol-4-yl)-1-oxoisoindolin-2-yl) piperidine-2,6-dione]	C (C = 0-10% remaining)	< 0.025 µM	< 0.025 µM	E (E = >25-75% remaining)
